The melting point is the temperature of the solid-liquid transition.

For the molecule `CC(C)(C)C(Cl)=NNc1cc(Cl)c(Cl)cc1[N+](=O)[O-]`, the melting point was 99 to 100 °C.
The molecule `COC(=O)c1cnc(S)n1C1CC(C)c2ccccc21` (configuration not stated) showed a melting point of 177 °C.
Then `Cc1ccc(C)n1C(=O)c1cc2cc(Br)ccc2o1`, with 115 to 116 °C; and `COc1cc2nc(CO)c(CO)c(-c3ccnc(NN)c3)c2cc1OC`, with 225 to 227 °C.
The value for `CC(C)(C)c1cc(C2=NC(=S)N=N2)cc(C(C)(C)C)c1O` was more than 250 °C; that for `CN1C(=O)CSc2ccc(Cl)cc21` was 119 to 121 °C.
The value for `O=c1ccc(Cc2cccnc2)c[nH]1` was 142 to 144 °C; that for `Cc1nn(C)c2ccc(C(=O)O)c(C3=NC(C)(C(C)C)C(=O)N3)c12` (configuration not stated) was 156 to 166 °C.
Molecule `NCC#CCCCC(=O)O` showed a melting point of 180 to 183 °C.
The value for `CN1CCN(CCC2C(=O)NC(c3ccc(Cl)cc3)c3ccccc32)CC1` (configuration not stated) was 201 to 205 °C.
The value for `COC(=O)c1cc(S(N)(=O)=O)c(OC)c2c1OCCO2` was 202 to 203 °C; that for `COc1ccc(CCN2CCC(n3ccc4ccc(CNC(C)=O)cc43)CC2)cc1` was 101 to 102 °C; that for `CCOc1cc(C(O)C(C)C)cc2c1OC(C)(C)C2` (configuration not stated) was 100 to 101 °C.
The value for `COc1ccc(NC(=O)c2csc(Nc3ccc(C)cn3)n2)cc1OC` was 212 to 214 °C; that for `O=C(O)CC1(CCCCCCCCC2(CC(=O)O)CC2)CC1` was 101 °C; that for `OC12C=C(C3NCCc4c3[nH]c3ccccc43)C3CCN(CCCCC=CCC1)CC31CC3C=CCCCCN3C21` (configuration not stated) was 165 to 168 °C.
Molecule `CC(C)COP(C)(=O)c1ccccc1S(N)(=O)=O` (configuration not stated) returned a melting point of 50 to 52 °C.
Then `FC(F)(F)c1ccc2nnc(-c3cccc(Cl)c3Cl)n2c1`, with 100 to 101 °C.
As for `O=[N+]([O-])c1cncn1CCO`, the melting point was 101 to 102 °C.
For `CCOC(=O)C1=Cc2cc3ccccc3n2CC1`, the melting point was in the range of 77 to 79 °C.
Then `O=C(CCl)Nc1ccc2c(c1NC(=O)Cc1ccc(F)cc1)C(=O)c1ccccc1C2=O`, with 213 to 214 °C; and `Nc1cc2c(cc1F)OC(=O)CN2`, with more than 250 °C; and `COC(=O)C1=C(C)NC(N)=C(C(=O)OC(C)C)C1c1ccccc1C#N` (configuration not stated), with 211 °C.
Molecule `CCOC(=O)C(C(C)=O)C(CC(=O)c1ccccc1)c1ccc(OC)c(OC)c1` (configuration not stated) came in with a melting point of 135 °C.
The value for `CCCCN(CC)c1nc(C)nc2c1NC(=O)CN2c1ccc(C(C)C)cc1Br` was 146 to 147 °C; that for `CCn1cc(C(=O)O)c(=O)c2cc(F)c(N3CCSC3)nc21` was 268 to 270 °C; that for `CON1C(C)(C)CC(OC(=O)c2cc(C(C)(C)C)c(O)c(C(C)(C)C)c2)CC1(C)C` was 126 to 128 °C.
In the case of `COc1ccc(-c2nc3ccc(C(C)(C)CNC(=O)C(C)C)cc3[nH]2)cc1`, the melting point lay in the range of 218 to 220 °C.
Then `CCN1CCC(n2nnnc2C2(c3cc(C(C)C)ccc3OC)C=CC(O)=CC2O)CC1` (configuration not stated), with 144 to 147 °C.
For the molecule `Cc1ccc(CC2(O)CCN(CC3Cc4cc(O)ccc4N3)CC2)cc1` (racemic), the melting point lay in the range of 90 to 94 °C.
Molecule `Fc1ccc([C@H]2CC[C@H](N3CCC(Cc4cc(F)ccc4F)CC3)CC2)cc1` returned a melting point of 80 to 81 °C.
The value for `Cc1ccc(-c2nc(-c3ccncc3)cs2)c(=O)[nH]1` was more than 300 °C; that for `NC(=O)C1CCc2sc3ccccc3c2C1` (configuration not stated) was 153 to 155 °C; that for `CC1(C)C2CC[C@]1(C)C(=O)C(C(=O)Nc1cccc([N+](=O)[O-])c1)C2=O` (some centres not stated) was 100 to 102 °C.
As to `Cc1cc(NC(=O)C(C)(O)COc2ccc(OCCCl)cc2)ccc1[N+](=O)[O-]` (configuration not stated), the melting point lay within 131 to 133 °C.
The value for `O=c1[nH]c(C2(F)CC2)nc2c1cnn2-c1ncc(C(F)(F)F)cc1Cl` was 211 °C; that for `O=C(Nc1ccc2c(c1)C(=O)NC2=O)C(=O)N1CCC(Cc2ccc(F)cc2)CC1` was 226 to 228 °C.
Then `CC1(C)CC(S(=O)(=O)Cc2c(C(F)(F)F)nn(C(F)F)c2Cl)=NO1`, with 126 to 127 °C; and `FC(F)(F)c1cc(-c2ccnc(Nc3ccc4c(c3)OCCO4)c2)cc(C(F)(F)F)c1`, with 130 to 132 °C; and `CCOc1cc(C(CC#N)N2C(=O)c3cccc(N)c3C2=O)ccc1OC` (configuration not stated), with 171 to 172 °C.
Then `CC(=O)OCC(COC(C)=O)NC(=O)c1cc(NC(=O)CCl)cc(C(=O)NC(COC(C)=O)COC(C)=O)c1`, with 135 to 137 °C.
Molecule `COc1cc(COc2nn(Cc3ccc(Oc4ccccc4)cc3)cc2C(N)=O)ccc1OCc1nc(-c2ccco2)oc1C` displayed a melting point of 105 to 106 °C.
As for `COc1ccccc1N1CCN(CC2=Cc3ccccc3CC2)CC1`, the melting point is 84 to 85 °C.
The value for `Nc1nnc(-c2ccc(C(F)(F)F)cc2)n1-c1cc(Cl)ccc1O` was 147 to 155 °C.
Then `CNC(=S)NS(=O)(=O)c1cc(CCNC(=O)/C=C/c2cccs2)ccc1OCc1ccccc1`, with 94 °C; and `O=C(O)CCn1cc(Cc2cccnc2)c2cc(NS(=O)(=O)c3ccc(F)cc3)ccc21`, with 214 to 215 °C.
Then `C=CC(=O)N1CC(O)CC1C(=O)OC` (configuration not stated), with 77 to 78 °C; and `NC(=O)c1nnn(Cc2ccccc2)c1NC(=O)c1ccccc1`, with 191 to 192 °C.
Turning to `CS(=O)(=O)Nc1cnc(NC(=O)[C@H](CC2CCCC2)c2ccc(S(C)(=O)=O)c(Cl)c2)cn1`, the melting point lay in the range of 108 to 110 °C.
The molecule `CCCCCCCCCCCCCCOc1ccccc1NC(=O)c1cc(Sc2nnnn2-c2cccc(C(=O)OCC)c2)c2ccccc2c1O` yielded a melting point of 88 to 90 °C.
The value for `Cc1noc(NS(=O)(=O)c2cc3ccccc3s2)c1C` was 157 to 160 °C.
Then `O=S(=O)(CCN1CCOCC1)Nc1cc(C(c2cc(F)ccc2F)S(=O)(=O)c2ccc(Cl)cc2)c(Cl)cn1` (configuration not stated), with 219 to 221 °C.
`CCOc1ccc(C(=O)N(C)C)c2c1C(=O)N(Cn1nnn(-c3ccccc3)c1=S)S2(=O)=O` had a melting point of 172 to 173 °C.
Then `CS(=O)(=O)c1ccc(Oc2ccc(C(=O)c3ccccc3)cc2)nc1`, with 130 to 132 °C.
Then `C=CCN(c1ncnc2c1ncn2C1OC(CO)C(O)C1O)C1CCCCC1` (configuration not stated), with 123 to 125 °C; and `CCCCc1nc2c(N)nc3ccccc3c2n1CCCCS(=O)(=O)c1ccc(F)cc1F`, with 190 to 193 °C.
Then `CCc1ccc2c(c1)C=Cc1cc(C)ccc1C2c1cn(-c2ccnc(N3CC(C(=O)O)C3)n2)c(=O)[nH]c1=O` (configuration not stated), with 244 °C; and `CCc1ccc(-c2ccc3c(c2)C=C(C(=O)OC)CCS3(=O)=O)cc1`, with 173 to 176 °C; and `C=CCN1CCc2ccc(C(=O)CCC(=O)N3CCC(c4ccc(Cl)cc4)CC3)cc2CC1`, with 136 to 137 °C.
On to `COc1cc2ncc(C#N)c(Nc3cccc(C(F)(F)F)c3)c2cc1OC`, for which the melting point lay in the range of 190 to 193 °C.
Then `O=C1CC2CC(C1)CN(Cc1ccccc1)C2`, with 89 °C; and `Clc1nc2ccccc2c2c(CCN3CCN(Cc4ccccc4)CC3)n(-c3ccccc3)nc12`, with 75 to 77 °C.
Then `c1ccc(COc2ccc(-c3nc(COc4cccc(CCCCn5ccnc5)c4)co3)cc2)cc1`, with 87 to 88 °C.
The value for `Cc1ccc(C)c(-c2nsc3ccccc23)c1` was 87 °C; that for `CC(C)(C)CC(C)(C)c1cc(-n2nc3ccc(-c4cccnc4)cc3n2)c(O)c(C(C)(C)c2ccccc2)c1` was 126 to 128 °C; that for `Cn1nnnc1SCC1=C(C(=O)O)N2C(=O)C(NC(=O)Cn3ccnc3S(C)(=O)=O)C2SC1` (configuration not stated) was 230 °C.
In turn, `O=C(N[C@@H](Cc1c[nH]c2ccccc12)C(=O)O)c1ccc([N+](=O)[O-])cc1` came in with a melting point of 115 to 117 °C.
The molecule `Oc1ccc(F)c2c1C[C@@H](N(C1CCC1)C1CCC1)CO2` gave a melting point of 170 to 172 °C.
Then `CCOCc1c(C)nc2c3cccc(Cl)c3ccn12`, with 94 to 96 °C; and `O=[N+]([O-])C(CN1CCN(c2ccccc2)CC1)c1ccccc1` (configuration not stated), with 76 °C.
The value for `COC(=O)C(CC(=O)O)Cc1ccc(OC)c(OC)c1` (configuration not stated) was 104 to 107 °C.
The value for `CCOc1nc(C(F)(F)F)cc(=O)n1-c1cc(OC)c(Cl)cc1F` was 117 to 119 °C; that for `CON=C(C(C)=C(ON)c1ccccc1C(=NOC)C(=O)OC)c1ccc(Cl)cc1` was 115 to 117 °C.
`CC(=O)Nc1ccc2c(c1)CC(=O)N2CCN1CCN(Cc2ccccc2)CC1` came in with a melting point of 145 to 147 °C.
In turn, `Cc1nc2c(N)nc3ccccc3c2n1CCCNC(=O)C1CCCC1` returned a melting point of 208 to 209 °C.
The value for `NCCCCCCCNC(=O)OCc1ccccc1` was 78 to 80 °C.
As for `COC(=O)c1cc(Nc2ccccc2)c(Nc2ccc(OC)cc2)cc1C(=O)OC`, the melting point lay in the range of 122 to 124 °C.
Molecule `Cc1ccc(OC(=O)Cl)cc1` showed a melting point of 60 to 61.5 °C.
The value for `CCN1C(=O)OCC1Cc1ccncc1` (configuration not stated) was 180 to 182 °C; that for `CCCCCCCCC(SCCCCCC)C(=O)Nc1c(OC)cc(Cl)c2ncccc12` (configuration not stated) was 110 to 111 °C.
In turn, `Cc1ccccc1C(=O)P1(=O)Oc2ccccc2-c2ccccc21` (configuration not stated) returned a melting point of 102 to 104 °C.
With `CCc1cc(OCc2ccccc2)cc(C(=O)O)c1C(=O)OC`, the melting point was in the range of 135 to 136 °C.
`COc1cc(-n2c(=O)cc(C(F)(F)F)[nH]c2=O)ccc1C#N` came in with a melting point of more than 230 °C.
Take `CCc1c(CNc2cccc(N)n2)c(CC)c(CNc2cccc(N)n2)c(CC)c1CNc1cccc(N)n1`: the melting point fell in the range of 164 to 165 °C.
As for `COC(=O)c1cc(C(=O)O)nc2cc(Cl)cc(Cl)c12`, the melting point is 169 to 171 °C.
The value for `CNCCCCCCCCCCCO` was 58 °C.
Molecule `Cc1cc(NC(=O)NN(c2ccccc2)c2cccc(C(=N)N)c2)ccc1N1CCCCC1=O` showed a melting point of more than 300 °C.

These data come from a melting point compilation (Tetko et al.; mined from patent text by program, amines drawn as free bases though some values may be those of a salt).
